ChEMBL document CHEMBL4393664, “2,4-Disubstituted quinazolines targeting breast cancer cells via EGFR-PI3K” (Eur J Med Chem, 2019)
Active and inactive are the calls of the source. The calls are words filed in the database; no cut-off is given here.

Tests used:
MCF7 [1] = test: Effect on total AKT protein level in human MCF7 cells up to 12 uM after 8 hrs by Western blot analysis; type: ADME, cell-based; conditions: mcf7, 8 h
[2] = molecular target: Epidermal growth factor receptor (Homo sapiens) (UniProt P00533); test: Inhibition of EGFR in human MDA-MB-231 cells assessed as reduction in phosphorylated AKT expression after 8 hrs by Western blot analysis; type: cell-based
MDA-MB-231 [3] = test: Induction of apoptosis in human MDA-MB-231 cells assessed as early apoptotic cells at 6 uM after 48 hrs by Annexin-V-FITC/propidium iodide staining based flow cytometry (reference value: 4.33%); type: functional
MCF7 [4] = test: Effect on total PI3K protein level in human MCF7 cells up to 12 uM after 8 hrs by Western blot analysis; type: ADME, cell-based; conditions: mcf7, 8 h
MCF7 [5] = test: Induction of apoptosis in human MCF7 cells assessed as increase in nuclear lysis up to 8 uM after 48 hrs by DAPI staining-based fluorescence microscopic method; type: functional, cell-based
MDA-MB-231 [6] = test: Induction of apoptosis in human MDA-MB-231 cells assessed as necrotic cells at 4 uM after 48 hrs by Annexin-V-FITC/propidium iodide staining based flow cytometry (reference value: 1.21%); type: functional
MCF7 [7] = test: Induction of apoptosis in human MCF7 cells assessed as late apoptotic cells at 2 uM after 48 hrs by Annexin-V-FITC/propidium iodide staining based flow cytometry (reference value: 4.28%); type: functional
MDA-MB-231 [8] = test: Inhibition of colony formation in human MDA-MB-231 cells at 9 uM after 7 days by crystal violet staining based microscopic analysis; type: functional, cell-based
HGC-27 = test: Cytotoxicity against human HGC27 cells assessed as reduction in cell viability after 72 hrs by MTT assay; type: functional, cell-based; conditions: HGC-27, 72 h
MCF7 [9] = test: Induction of apoptosis in human MCF7 cells after 48 hrs by Annexin-V-FITC/propidium iodide staining based flow cytometry; type: functional, cell-based
MCF7 [10] = test: Cell cycle arrest in human MCF7 cells assessed as accumulation at G2 phase at 12 uM after 24 hrs by propidium iodide/RNase A staining-based flow cytometric analysis (reference value: 30.62%); type: functional
MGC-803 = test: Cytotoxicity against human MGC803 cells assessed as reduction in cell viability after 72 hrs by MTT assay; type: functional, cell-based; conditions: MGC-803, 72 h
MCF7 [11] = test: Cell cycle arrest in human MCF7 cells assessed as accumulation at G1 phase at 6 uM after 24 hrs by propidium iodide/RNase A staining-based flow cytometric analysis (reference value: 52.21%); type: functional
MDA-MB-231 [12] = test: Induction of apoptosis in human MDA-MB-231 cells assessed as late apoptotic cells at 6 uM after 48 hrs by Annexin-V-FITC/propidium iodide staining based flow cytometry (reference value: 2.38%); type: functional
[13] = molecular target: Epidermal growth factor receptor (Homo sapiens) (UniProt P00533); test: Inhibition of EGFR phosphorylation at Y1068 residues in human MCF7 cells after 8 hrs by Western blot analysis; type: cell-based
MDA-MB-231 [14] = test: Effect on total EGFR protein level in human MDA-MB-231 cells up to 12 uM after 8 hrs by Western blot analysis; type: ADME, cell-based; conditions: mda-mb-231, 8 h
MCF7 [15] = test: Induction of apoptosis in human MCF7 cells assessed as necrotic cells at 4 uM after 48 hrs by Annexin-V-FITC/propidium iodide staining based flow cytometry (reference value: 1.57%); type: functional
MDA-MB-231 [16] = test: Cell cycle arrest in human MDA-MB-231 cells assessed as accumulation at G1 phase at 12 uM after 24 hrs by propidium iodide/RNase A staining-based flow cytometric analysis (reference value: 49.17%); type: functional
MDA-MB-231 [17] = test: Induction of apoptosis in human MDA-MB-231 cells assessed as viable cells at 4 uM after 48 hrs by Annexin-V-FITC/propidium iodide staining based flow cytometry (reference value: 92.1%); type: functional; conditions: MDA-MB-231, 48 h, read-out: Activity
MDA-MB-231 [18] = test: Cell cycle arrest in human MDA-MB-231 cells assessed as accumulation at S phase at 12 uM after 24 hrs by propidium iodide/RNase A staining-based flow cytometric analysis (reference value: 23.07%); type: functional
MCF7 [19] = test: Induction of apoptosis in human MCF7 cells assessed as viable cells at 4 uM after 48 hrs by Annexin-V-FITC/propidium iodide staining based flow cytometry (reference value: 91.1%); type: functional; conditions: MCF7, 48 h, read-out: Activity
[20] = molecular target: Epidermal growth factor receptor (Homo sapiens) (UniProt P00533); test: Inhibition of EGFR in human MDA-MB-231 cells assessed as reduction in phosphorylated PI3K expression after 8 hrs by Western blot analysis; type: cell-based
MDA-MB-231 [21] = test: Induction of apoptosis in human MDA-MB-231 cells assessed as necrotic cells at 2 uM after 48 hrs by Annexin-V-FITC/propidium iodide staining based flow cytometry (reference value: 1.21%); type: functional
MCF7 [22] = test: Induction of apoptosis in human MCF7 cells assessed as late apoptotic cells at 6 uM after 48 hrs by Annexin-V-FITC/propidium iodide staining based flow cytometry (reference value: 4.28%); type: functional
MDA-MB-231 [23] = test: Cell cycle arrest in human MDA-MB-231 cells assessed as accumulation at G1 phase at 6 uM after 24 hrs by propidium iodide/RNase A staining-based flow cytometric analysis (reference value: 49.17%); type: functional
MDA-MB-231 [24] = test: Induction of apoptosis in human MDA-MB-231 cells assessed as late apoptotic cells at 2 uM after 48 hrs by Annexin-V-FITC/propidium iodide staining based flow cytometry (reference value: 2.38%); type: functional
MDA-MB-231 [25] = test: Cell cycle arrest in human MDA-MB-231 cells assessed as accumulation at S phase at 6 uM after 24 hrs by propidium iodide/RNase A staining-based flow cytometric analysis (reference value: 23.07%); type: functional
MDA-MB-231 [26] = test: Induction of apoptosis in human MDA-MB-231 cells assessed as viable cells at 6 uM after 48 hrs by Annexin-V-FITC/propidium iodide staining based flow cytometry (reference value: 92.1%); type: functional; conditions: MDA-MB-231, 48 h, read-out: Activity
MDA-MB-231 [27] = test: Induction of apoptosis in human MDA-MB-231 cells assessed as increase in nuclear lysis up to 8 uM after 48 hrs by DAPI staining-based fluorescence microscopic method; type: functional, cell-based
MDA-MB-231 [28] = test: Induction of apoptosis in human MDA-MB-231 cells assessed as increase in p53 expression at 3 to 12 uM after 48 hrs by Western blot analysis; type: functional, cell-based
MCF7 [29] = test: Antiproliferative activity against human MCF7 cells assessed as reduction in cell viability after 24 to 72 hrs by MTT assay; type: functional, cell-based
MCF7 [30] = test: Inhibition of colony formation in human MCF7 cells at 9 uM after 7 days by crystal violet staining based microscopic analysis; type: functional, cell-based
MDA-MB-231 [31] = test: Cytotoxicity against human MDA-MB-231 cells assessed as reduction in cell viability after 72 hrs by MTT assay; type: functional, cell-based; conditions: MDA-MB-231, 72 h
MCF7 [32] = test: Induction of apoptosis in human MCF7 cells assessed as downregulation of Bcl-2 protein expression at 3 to 12 uM after 48 hrs by Western blot analysis; type: functional, cell-based
[33] = molecular target: Epidermal growth factor receptor (Homo sapiens) (UniProt P00533); test: Inhibition of EGFR phosphorylation at Y1045 residues in human MCF7 cells after 8 hrs by Western blot analysis; type: cell-based
MCF7 [34] = test: Induction of apoptosis in human MCF7 cells assessed as viable cells at 2 uM after 48 hrs by Annexin-V-FITC/propidium iodide staining based flow cytometry (reference value: 91.1%); type: functional; conditions: MCF7, 48 h, read-out: Activity
[35] = molecular target: Epidermal growth factor receptor (Homo sapiens) (UniProt P00533); test: Inhibition of EGFR phosphorylation at Y1068 residues in human MDA-MB-231 cells after 8 hrs by Western blot analysis; type: cell-based

Sequence of Epidermal growth factor receptor (Homo sapiens) (P00533 whole entry): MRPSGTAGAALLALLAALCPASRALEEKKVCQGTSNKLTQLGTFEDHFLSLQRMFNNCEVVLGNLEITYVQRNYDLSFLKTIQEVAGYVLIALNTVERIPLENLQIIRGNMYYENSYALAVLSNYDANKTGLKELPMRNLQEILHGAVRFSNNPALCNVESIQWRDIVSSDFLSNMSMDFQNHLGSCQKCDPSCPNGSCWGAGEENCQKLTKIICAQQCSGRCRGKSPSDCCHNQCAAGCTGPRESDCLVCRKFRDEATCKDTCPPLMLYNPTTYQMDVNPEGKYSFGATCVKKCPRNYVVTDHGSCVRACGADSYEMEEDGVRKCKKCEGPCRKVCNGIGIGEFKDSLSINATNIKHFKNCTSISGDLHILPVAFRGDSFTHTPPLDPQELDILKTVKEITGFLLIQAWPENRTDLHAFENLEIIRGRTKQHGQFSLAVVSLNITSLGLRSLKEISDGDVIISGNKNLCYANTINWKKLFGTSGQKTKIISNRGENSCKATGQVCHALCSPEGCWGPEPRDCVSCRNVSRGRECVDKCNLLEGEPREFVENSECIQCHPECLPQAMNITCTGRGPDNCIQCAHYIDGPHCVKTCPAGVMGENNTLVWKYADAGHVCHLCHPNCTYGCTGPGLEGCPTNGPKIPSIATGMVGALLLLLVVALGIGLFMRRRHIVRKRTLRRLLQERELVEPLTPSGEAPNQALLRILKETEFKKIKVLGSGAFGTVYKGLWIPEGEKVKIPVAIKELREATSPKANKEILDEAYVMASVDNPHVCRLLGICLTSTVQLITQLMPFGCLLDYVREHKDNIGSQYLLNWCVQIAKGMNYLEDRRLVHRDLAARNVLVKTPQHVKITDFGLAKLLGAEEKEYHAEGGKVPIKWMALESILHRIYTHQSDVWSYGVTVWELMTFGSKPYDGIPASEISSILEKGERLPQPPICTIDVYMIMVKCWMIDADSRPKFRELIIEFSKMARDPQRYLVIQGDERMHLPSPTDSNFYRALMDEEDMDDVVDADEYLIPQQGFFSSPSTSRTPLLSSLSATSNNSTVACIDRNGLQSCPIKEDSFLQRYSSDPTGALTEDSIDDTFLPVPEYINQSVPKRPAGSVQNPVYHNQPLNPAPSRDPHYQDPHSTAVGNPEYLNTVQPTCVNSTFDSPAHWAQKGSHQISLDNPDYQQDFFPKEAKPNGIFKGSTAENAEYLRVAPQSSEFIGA

inhibition [2]: Dose-dependent effect | inhibition [13]: Dose-dependent effect | inhibition [20]: Dose-dependent effect | inhibition [33]: Dose-dependent effect | inhibition [35]: Dose-dependent effect
SMILES: FC(F)(F)c1ccc(CSc2nc(Nc3ccc(C(F)(F)F)cc3)c3ccccc3n2)cc1
Activity (MCF7 [1]): Non-Toxic | Activity (MDA-MB-231 [3]): 10.4% | Activity (MCF7 [4]): Non-Toxic | Activity (MCF7 [5]): Active | Activity (MDA-MB-231 [6]): 3.06% | Activity (MCF7 [7]): 4.26% | growth inhibition (GI) (MDA-MB-231 [8]): Active | IC50 (HGC-27): 7.56 µM | Activity (MCF7 [9]): Dose-dependent effect | Activity (MCF7 [10]): 14.32% | IC50 (MGC-803): 6.17 µM | Activity (MCF7 [11]): 65.05% | Activity (MDA-MB-231 [12]): 20.7% | Activity (MDA-MB-231 [14]): Non-Toxic | Activity (MCF7 [15]): 1.28% | Activity (MDA-MB-231 [16]): 69.54% | viability at 4 µM (MDA-MB-231 [17]): 71.1% | Activity (MDA-MB-231 [18]): 18.77% | viability at 4 µM (MCF7 [19]): 76.2% | Activity (MDA-MB-231 [21]): 2.6% | Activity (MCF7 [22]): 10.6% | Activity (MDA-MB-231 [23]): 60.7% | Activity (MDA-MB-231 [24]): 7.92% | Activity (MDA-MB-231 [25]): 17.32% | viability at 6 µM (MDA-MB-231 [26]): 66.5% | Activity (MDA-MB-231 [27]): Active | Activity (MDA-MB-231 [28]): Active | Activity (MCF7 [29]): Dose-dependent effect | growth inhibition (GI) (MCF7 [30]): Active | IC50 (MDA-MB-231 [31]): 5.46 µM | Activity (MCF7 [32]): Active | viability at 2 µM (MCF7 [34]): 81.1%
